Experimental data taken from patent US9290490B2 (Merck Sharp & Dohme Corp., priority 2011, dated 2016).
Read-outs that look alike come from different tables or passages of the source.

Biological target: recombinant human GST-Syk (Homo sapiens (Human), UniProt P43405)
Experiment: Homogeneous Time-Resolved Fluorescence (HTRF) Assay for the Recombinant Human Syk Enzyme
Format: biochemical
Conditions: recombinant human GST-Syk 5 pM, ATP 25 μM
Method: Homogeneous Time-Resolved Fluorescence (HTRF) Assay for the Recombinant Human Syk Enzyme:
A recombinant GST-hSyk fusion protein was used to measure potency of compounds to inhibit human Syk activity. The recombinant human GST-Syk (Carna Biosciences #08-176) (5 pM final concentration) was incubated with various concentrations of the inhibitor diluted in DMSO (0.1% final concentration) for 10 minutes at room temperature in 15 mM Tris-HCl (pH 7.5), 0.01% tween 20, 2 mM DTT in 384 well plate format. To initiate the reaction the biotinylated substrate peptide (250 nM final concentration) that contains the phosphorylation site for Syk was added with magnesium (5 mM final concentration) and ATP (25 μM final concentration). Final volume of the reaction was 10 μL. Phosphorylation of the peptide was allowed to proceed for 45′ at room temperature. To quench the reaction and detect the phosphorylated product, 2 nM of a Europium-anti-phosphotyrosine antibody (Perkin Elmer #AD0161) and 70 nM SA-APC (Perkin-Elmer #CR130-100) were added together in 15 mM Tris pH 7.5, 40 mM EDTA, 0.01% Tween 20. Final volume of the quenching solution was 10 μL. The resulting HTRF signal was measured after 30 minutes on a EnVision (Perkin-Elmer) reader using a time-resolved fluorescence protocol. […] IC50 values are also provided for the following representative compounds: […]

[1] = 10-dose titration, read-out: rhSyk
[2] = read-out: rhSyk Activity (IC50)

Structure (SMILES)	IC50 [1]	IC50 [2]
Cc1cc(Nc2nccc(C)n2)cc(-c2cnc(C(C)(O)C3CCC(C(=O)O)CC3)s2)c1 (stereo not shown) [Example 2-53]	13 nM	≤ 100 nM
Cc1cc(Nc2nccc(C)n2)cc(-c2cnc(C(C)(O)C3CCC(NOC(=O)Cc4ccccc4)CC3)s2)c1 (stereo not shown) [Example 2-57]	123 nM	100 to 1000 nM
Cc1cc(Nc2ncc(Cl)c(C)n2)cc(-c2cnc(C(C)(O)C3CCC(C(=O)O)CC3)s2)c1 (stereo not shown) [Example 2-60]	5 nM	≤ 100 nM
CCCCC(=O)OC1CCC(C(C)(O)c2ncc(-c3cc(C)cc(Nc4ncc(F)c(OC)n4)c3)s2)CC1 (stereo not shown) [Example 2-73]	1460 nM	1000 to 10000 nM
Cc1cc(Nc2nccc(C)n2)cc(-c2cnc(C(O)(C3CCC(C(=O)O)CC3)C(F)(F)F)s2)c1 (stereo not shown) [Example 2-101]	2 nM	≤ 100 nM
Cc1cc(Nc2ncc(F)c(C)n2)cc(-c2cnc(C(O)(CO)C3CCC(C(=O)O)CC3)s2)c1 (stereo not shown) [Example 2-109]	15 nM	≤ 100 nM
COC(C)(c1ncc(-c2cc(C)cc(Nc3nccc(C(F)(F)F)n3)c2)s1)[C@H]1CC[C@H](C(=O)O)CC1 (stereo partly shown) [Example 2-110]	1 nM	≤ 100 nM
Cc1cc(Nc2nccc(C(F)(F)F)n2)cc(-c2cnc(C(N)[C@H]3CC[C@H](C(=O)O)CC3)s2)c1 (stereo partly shown) [Example 2-112]	3 nM	≤ 100 nM
Cc1cc(Nc2nccc(C(F)(F)F)n2)cc(-c2cnc(C(C)(O)C3CCC(C(=O)O)C3)s2)c1 (stereo not shown) [Example 3-1]	–	≤ 100 nM
Cc1cc(Nc2nccc(C(F)(F)F)n2)cc(-c2cnc(C(C)(O)C3CCC(C(=O)O)C3)s2)c1 (stereo not shown) [Example 3-2]	2 nM	≤ 100 nM
Cc1cc(Nc2nccc(C(F)(F)F)n2)cc(-c2cnc(C(C)(O)C3CCC(C(=O)O)C3)s2)c1 (stereo not shown) [Example 3-3]	–	≤ 100 nM
Cc1cc(Nc2nccc(C(F)(F)F)n2)cc(-c2cnc(C(C)(O)C3CCC(C(=O)O)C3)s2)c1 (stereo not shown) [Example 3-4]	–	≤ 100 nM
Cc1cc(Nc2nccc(C(F)(F)F)n2)cc(-c2cnc(C(C)(O)C3CCC(C)(C(=O)O)CC3)s2)c1 (stereo not shown) [Example 3-5]	–	≤ 100 nM
Cc1cc(Nc2nccc(C(F)(F)F)n2)cc(-c2cnc(C(C)(O)C3CCC(C)(C(=O)O)CC3)s2)c1 (stereo not shown) [Example 3-6]	–	≤ 100 nM
Cc1cc(Nc2nccc(C(F)(F)F)n2)cc(-c2cnc(C(C)(O)C3CCC(C)(C(=O)O)CC3)s2)c1 (stereo not shown) [Example 3-7]	–	≤ 100 nM
Cc1cc(Nc2nccc(C(F)(F)F)n2)cc(-c2cnc(C(F)C3CCC(C(=O)O)CC3)s2)c1 (stereo not shown) [Example 4-6]	2 nM	≤ 100 nM
Cc1cc(Nc2nccc(C)n2)cc(-c2cnc(C[C@]3(O)CC[C@@H](C(=O)O)CC3)s2)c1 [Example 5 (cis isomer), cis-4-hydroxy-4-[(5-{3-methyl-5-[(4-methylpyrimidin-2-yl)amino]phenyl}-1,3-thiazol-2-yl)methyl]cyclohexanecarboxylic acid]	–	≤ 100 nM
Cc1cc(Nc2nccc(C(F)(F)F)n2)cc(-c2cnc(C(O)[C@H]3CC[C@@H](C(N)=O)CC3)s2)c1 [Example 7 (cis isomer), cis-4-{hydroxy[5-(3-methyl-5-{[4-(trifluoromethyl)pyrimidin-2-yl]amino}phenyl)-1,3-thiazol-2-yl]methyl}cyclohexanecarboxamide]	–	≤ 100 nM
Cc1cc(Nc2nccc(C(F)(F)F)n2)cc(-c2cnc(C(O)[C@H]3CC[C@H](C(N)=O)CC3)s2)c1 [Example 7 (trans isomer), trans-4-{hydroxy[5-(3-methyl-5-{[4-(trifluoromethyl)pyrimidin-2-yl]amino}phenyl)-1,3-thiazol-2-yl]methyl}cyclohexanecarboxamide]	35 nM	≤ 100 nM
Cc1cc(Nc2nccc(C(F)F)n2)cc(-c2cnc(C(C)(O)[C@H]3CC[C@H](C(=O)O)CC3)s2)c1Br (stereo partly shown) [Example 8-1]	–	≤ 100 nM
